Biological target: [Pyruvate dehydrogenase (acetyl-transferring)] kinase isozyme 1, mitochondrial (Homo sapiens, UniProt Q15118)
Assay: Binding affinity to pyruvate dehydrogenase kinase 1 (unknown origin) incubated for 90 mins by VER-00160364 probe based fluorescence polarization assay

[Pyruvate dehydrogenase (acetyl-transferring)] kinase isozyme 1, mitochondrial, sequence (Q15118 whole entry): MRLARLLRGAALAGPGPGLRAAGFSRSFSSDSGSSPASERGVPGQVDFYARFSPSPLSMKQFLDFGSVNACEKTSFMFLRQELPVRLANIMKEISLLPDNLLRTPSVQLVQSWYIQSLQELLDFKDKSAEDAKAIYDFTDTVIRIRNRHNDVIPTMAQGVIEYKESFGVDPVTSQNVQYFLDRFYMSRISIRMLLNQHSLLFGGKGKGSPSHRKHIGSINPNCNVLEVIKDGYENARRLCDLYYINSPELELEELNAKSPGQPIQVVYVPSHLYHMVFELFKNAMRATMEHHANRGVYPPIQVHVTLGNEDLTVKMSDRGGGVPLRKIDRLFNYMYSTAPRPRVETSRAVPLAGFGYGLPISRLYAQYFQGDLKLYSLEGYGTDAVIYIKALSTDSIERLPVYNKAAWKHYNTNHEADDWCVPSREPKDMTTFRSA

SMILES | IC50 [nM]
Cc1ncc(C)c(-c2ccc(N(Cc3ccccc3)C(=O)c3ccc(O)cc3O)cc2)n1 | 100
Cc1nccnc1-c1ccc(N(Cc2ccccc2)C(=O)c2ccc(O)cc2O)cc1F | 1000
CN(Cc1ccc2c(ccn2C)c1)C(=O)c1ccc(N(Cc2ccsc2)C(=O)c2ccc(O)cc2O)cc1 | 1000
Cc1cnc(C#N)nc1-c1ccc(N(Cc2ccccc2)C(=O)c2ccc(O)cc2O)cc1 | 100
CN(Cc1ccc(OC(F)(F)F)cc1)C(=O)c1ccc(N(Cc2ccsc2)C(=O)c2ccc(O)cc2O)cc1 | 1000
Cc1cc(S(=O)(=O)N2CCN(C)CC2)cnc1-c1ccc(N(Cc2ccsc2)C(=O)c2ccc(O)cc2O)cc1 | 10
CN(C)C(=O)c1ccc(N(Cc2ccn(C)n2)C(=O)c2ccc(O)cc2O)cc1 | 100
Cc1cc(S(=O)(=O)NCCCC(N)=O)cnc1-c1ccc(N(Cc2ccccc2)C(=O)c2ccc(O)cc2O)cc1 | 10
Cc1cc(S(=O)(=O)N(C)CCO)cnc1-c1ccc(N(Cc2ccsc2)C(=O)c2ccc(O)cc2O)cc1 | 100
Nc1ccc(-c2ccc(N(Cc3cccnc3)C(=O)c3ccc(O)cc3O)cc2)nn1 | 1000
Cc1ncc(C)c(-c2ccc(N(Cc3ccsc3)C(=O)c3ccc(O)cc3O)cc2)n1 | 10
C#Cc1ncc(C)c(-c2ccc(N(Cc3ccccc3)C(=O)c3ccc(O)cc3O)cc2)n1 | 1000
COc1ccc(CN(C)C(=O)c2ccc(N(Cc3ccccc3)C(=O)c3ccc(O)cc3O)cc2)cc1 | 100
COc1ccccc1-c1ccc(N(Cc2cccnc2)C(=O)c2ccc(O)cc2O)cc1 | 1000
O=C(c1ccc(O)cc1O)N(Cc1cccnc1)c1ccc(-c2nc3ccccc3nc2C(F)(F)F)cc1 | 100
CN(Cc1ccc2nccnc2c1)C(=O)c1ccc(N(Cc2ccccc2)C(=O)c2ccc(O)cc2O)cc1 | 10
O=C(Nc1ccc(N(Cc2ccccc2)C(=O)c2ccc(O)cc2O)cc1)c1ccccc1 | 1000
O=C(c1ccc(O)cc1O)N(Cc1ccsc1)c1ccc(-c2ncnc3cccc(F)c23)cc1 | 100
CN(Cc1ccc2ccccc2n1)C(=O)c1ccc(N(Cc2ccsc2)C(=O)c2ccc(O)cc2O)cc1 | 100
O=C(c1ccc(O)cc1O)N(Cc1ccccc1)c1ccc(-c2nc3ccccc3cc2CO)cc1 | 10000
Cc1cc2ccc(F)cc2nc1-c1ccc(N(Cc2cccnc2)C(=O)c2ccc(O)cc2O)cc1 | 100
O=C(c1ccc(O)cc1O)N(Cc1ccsc1)c1ccc(-c2nc(C(F)(F)F)nc3ccccc23)cc1 | 100
N#Cc1cc(Cl)nc(-c2ccc(N(Cc3ccsc3)C(=O)c3ccc(O)cc3O)cc2)c1 | 10000
CN(C)C(=O)c1ccc(N(Cc2cccnc2)C(=O)c2ccc(O)cc2O)cc1 | 100
CC(c1ccccc1)N(C(=O)c1ccc(O)cc1O)c1ccc(C(=O)N(C)C)cc1 (stereo unspecified) | 1000
Cc1cccnc1-c1ccc(N(Cc2cccnc2)C(=O)c2ccc(O)cc2O)cc1 | 100

SMILES | IC50 [nM]
CN(Cc1cccc2cccnc12)C(=O)c1ccc(N(Cc2ccsc2)C(=O)c2ccc(O)cc2O)cc1 | 100
CCc1nccnc1-c1ccc(N(Cc2ccsc2)C(=O)c2ccc(O)cc2O)cc1 | 100
CN(Cc1ccc(OC(F)(F)F)cc1)C(=O)c1ccc(N(Cc2cccnc2)C(=O)c2ccc(O)cc2O)cc1 | 100
Cc1cnc(-c2ccccc2)nc1-c1ccc(N(Cc2ccccc2)C(=O)c2ccc(O)cc2O)cc1 | 1000
CN(Cc1ccc2ncccc2c1)C(=O)c1ccc(N(Cc2ccccc2)C(=O)c2ccc(O)cc2O)cc1 | 100
Cc1ccc(Cl)cc1-c1ccc(N(Cc2ccccc2)C(=O)c2ccc(O)cc2O)cc1 | 1000
CSc1nc(-c2ccc(N(Cc3ccsc3)C(=O)c3ccc(O)cc3O)cc2)c2cc[nH]c2n1 | 1000
CS(=O)(=O)Nc1ccc(N(Cc2ccccc2)C(=O)c2ccc(O)cc2O)cc1 | 1000
Cc1cnc(Cl)nc1-c1ccc(N(Cc2ccccc2)C(=O)c2cc(C(F)(F)F)c(O)cc2O)cc1 | 1000
Cc1ncc(C)c(-c2ccc(N(Cc3cccnc3)C(=O)c3ccc(O)cc3O)cc2)n1 | 10
Cc1cc2ccccc2nc1-c1ccc(N(Cc2ccc(F)cc2)C(=O)c2ccc(O)cc2O)cc1 | 100
CNc1nccc(-c2ccc(N(Cc3cccnc3)C(=O)c3ccc(O)cc3O)cc2)n1 | 100
Cc1nc(C)c(-c2ccc(N(Cc3cccnc3)C(=O)c3ccc(O)cc3O)cc2)s1 | 1000
O=C(NC1CC1)c1ccc(N(Cc2ccccc2)C(=O)c2ccc(O)cc2O)cc1 | 1000
Cc1nc(N)ccc1-c1ccc(N(Cc2ccccc2)C(=O)c2ccc(O)cc2O)cc1 | 1000
CCOc1ccc2nc(-c3ccc(N(Cc4ccsc4)C(=O)c4ccc(O)cc4O)cc3)c(C)cc2c1 | 1000
CN(Cc1ccc(C#N)cc1)C(=O)c1ccc(N(Cc2cccnc2)C(=O)c2ccc(O)cc2O)cc1 | 100
Cc1cnc(Cl)nc1-c1ccc(N(Cc2ccc(C#N)cc2)C(=O)c2ccc(O)cc2O)cc1 | 100
CN(C)CCN(C)C(=O)c1ccc(N(Cc2ccccc2)C(=O)c2ccc(O)cc2O)cc1 | 1000
Cc1cc(S(=O)(=O)NCc2ccccn2)cnc1-c1ccc(N(Cc2ccccc2)C(=O)c2ccc(O)cc2O)cc1 | 10
Cc1ccc(C)c(-c2ccc(N(Cc3ccccc3)C(=O)c3ccc(O)cc3O)cc2)n1 | 10
Cc1cc2ccccc2nc1-c1ccc(N(Cc2cccc3ccccc23)C(=O)c2ccc(O)cc2O)cc1 | 100
CC(c1ccccc1)N(C(=O)c1cc(Cl)c(O)cc1O)c1ccc(C(=O)N(C)C)cc1 (stereo unspecified) | 100
CCc1nccnc1-c1ccc(N(Cc2cccnc2)C(=O)c2ccc(O)cc2O)cc1 | 100
Cc1noc(-c2ccccc2CN(C(=O)c2ccc(O)cc2O)c2ccc(-c3nc4ccccc4cc3C)cc2)n1 | 10

Further compounds by falling IC50, results first:

IC50 [nM] | SMILES
10000 | Cc1cc2[nH]c(=O)[nH]c2cc1-c1ccc(N(Cc2ccccc2)C(=O)c2ccc(O)cc2O)cc1
10000 | CCOC(=O)c1nc(C)nc(-c2ccc(N(Cc3ccccc3)C(=O)c3ccc(O)cc3O)cc2)c1C
10000 | COc1cc(-c2ccc(N(Cc3ccsc3)C(=O)c3ccc(O)cc3O)cc2)ncn1
1000 | COc1cnc(Cl)nc1-c1ccc(N(Cc2ccccc2)C(=O)c2ccc(O)cc2O)cc1C
1000 | CN(C)CCN(C)C(=O)c1ccc(N(Cc2cccnc2)C(=O)c2ccc(O)cc2O)cc1
1000 | O=C(c1ccc(O)cc1O)N(Cc1cccnc1)c1ccc(-c2ccc(NC3CC3)nn2)cc1
1000 | COc1ccc(CN(C)C(=O)c2ccc(N(Cc3cccc(C)c3)C(=O)c3cc(Cl)c(O)cc3O)cc2)cc1
1000 | CN(Cc1ccc2ccccc2c1)C(=O)c1ccc(N(Cc2ccsc2)C(=O)c2ccc(O)cc2O)cc1
1000 | Cc1c(-c2ccc(N(Cc3cccnc3)C(=O)c3ccc(O)cc3O)cc2)ccc2[nH]ncc12
1000 | O=C(c1ccc(O)cc1O)N(Cc1cccnc1)c1ccc(-c2ccc(Cl)nc2)cc1
1000 | O=C(c1ccc(O)cc1O)N(Cc1ccccc1)c1ccc(-c2ccc(N3CCOCC3)nn2)cc1
1000 | Cc1cc2cc(Cl)ccc2nc1-c1ccc(N(Cc2ccsc2)C(=O)c2ccc(O)cc2O)cc1
1000 | CN(C)C(=O)c1ccc(N(Cc2nc3ccccc3[nH]2)C(=O)c2cc(Cl)c(O)cc2O)cc1
1000 | C[C@H](c1ccccc1)N(C(=O)c1cc(Cl)c(O)cc1O)c1ccc(C(=O)N(C)C)cc1
1000 | Cc1cc(S(=O)(=O)N2CCC(F)(F)CC2)cnc1-c1ccc(N(Cc2ccccc2)C(=O)c2ccc(O)cc2O)cc1
1000 | CN(Cc1cccc2ccccc12)C(=O)c1ccc(N(Cc2ccccc2)C(=O)c2ccc(O)cc2O)cc1
100 | COc1ccc(CN(C)C(=O)c2ccc(N(Cc3ccsc3)C(=O)c3ccc(O)cc3O)cc2)cc1
100 | Cc1cc(S(=O)(=O)N2CCOCC2)cnc1-c1ccc(N(Cc2ccccc2)C(=O)c2ccc(O)cc2O)cc1
100 | CCc1cnc(C)nc1-c1ccc(N(Cc2ccccc2)C(=O)c2ccc(O)cc2O)cc1
100 | CCNCc1ccc(CN(C(=O)c2ccc(O)cc2O)c2ccc(-c3nc4ccccc4cc3C)cc2)cc1

IC50 [nM] | SMILES
100 | O=C(c1ccc(O)cc1O)N(Cc1cccnc1)c1ccc(-c2ccnc3ccsc23)cc1
100 | Cc1cc(S(=O)(=O)N2CCCCC2)cnc1-c1ccc(N(Cc2ccccc2)C(=O)c2ccc(O)cc2O)cc1
100 | CN(Cc1cccc2ncccc12)C(=O)c1ccc(N(Cc2cccnc2)C(=O)c2ccc(O)cc2O)cc1
100 | CCOC(=O)c1nc(-c2ccc(N(Cc3cccnc3)C(=O)c3ccc(O)cc3O)cc2)c2ccccc2n1
100 | CN(C)C(=O)c1ccc(N(Cc2ccccn2)C(=O)c2cc(Cl)c(O)cc2O)cc1
100 | O=C(c1ccc(O)cc1O)N(Cc1ccccc1)c1ccc(-c2nc(-c3ccccc3)nc3ccccc23)cc1
100 | CN(C)C(=O)c1ccc(N(CC2CCCC2)C(=O)c2cc(Cl)c(O)cc2O)cc1
100 | CSc1nc2c(c(-c3ccc(N(Cc4cccnc4)C(=O)c4ccc(O)cc4O)cc3)n1)CCC2
100 | O=C(c1ccc(O)cc1O)N(Cc1ccsc1)c1ccc(-c2nc(Cl)nc3c2COCC3)cc1
100 | CN(Cc1ccnc2ccccc12)C(=O)c1ccc(N(Cc2ccccc2)C(=O)c2ccc(O)cc2O)cc1
100 | O=C(c1ccc(O)cc1O)N(Cc1cccnc1)c1ccc(-c2ncnc3ccc(Cl)cc23)cc1
100 | CN(Cc1cccs1)C(=O)c1ccc(N(Cc2ccccc2)C(=O)c2ccc(O)cc2O)cc1
100 | Cc1cc2ccccc2nc1-c1ccc(N(Cc2ccc(CN(C)C)cc2)C(=O)c2ccc(O)cc2O)cc1
100 | Cc1ccnnc1-c1ccc(N(Cc2ccccc2)C(=O)c2ccc(O)cc2O)cc1
100 | O=C(c1ccc(O)cc1O)N(Cc1ccccc1)c1ccc(-c2ncnc3ccc(Cl)cc23)cc1
100 | CN(C)C(=O)c1ccc(N(CC2CCCC2)C(=O)c2ccc(O)cc2O)cc1
10 | COc1ccc(CN(C)C(=O)c2ccc(N(Cc3ccsc3)C(=O)c3cc(C)c(O)cc3O)cc2)cc1
10 | Cc1cc(S(=O)(=O)NCc2cccnc2)cnc1-c1ccc(N(Cc2ccccc2)C(=O)c2ccc(O)cc2O)cc1
10 | CN(C)C(=O)c1ccc(N(Cc2ccccc2)C(=O)c2cc(Cl)c(O)cc2O)cc1
10 | Cc1nccn1-c1ccc(-c2ccc(N(Cc3ccccc3)C(=O)c3ccc(O)cc3O)cc2)nn1

— ChEMBL document CHEMBL3727364, “Resorcinol n-aryl amide compounds, for use as pyruvate dehydrogenase kinase inhibitors” (2015)
